One data set is described as follows: physchem. The following applies: deionized water.
Data set [1] in a line: Test for solubility in water (deionized water, stirring 3 minutes, presence or absence of insoluble matter).
Method: (§1) The measurements were performed by mixing deionized water with a compound to be tested, subsequently stirring for 3 minutes using a electromagnetic vibrating stirrer, and determining a critical value (solubility) based on presence or absence of insoluble matter.

Structures are written as SMILES. Bounds are passed on as bounds.

Method for physchem: as §1

As to `COC(=O)C1=C(C)NC(C)=C(C(=O)OCCC[n+]2ccccc2)[C@H]1c1cccc([N+](=O)[O-])c1` [Example 2, 3-pyridiniumpropyl (4S)-1,4-dihydro-2,6-dimethyl-5-methoxycarbonyl-4-(3-nitrophenyl)-pyridine-3-carboxylate iodide], the solubility at 0.05 h in the data set “physchem” is ≥ 1000 µg/mL. On to `COC(=O)C1=C(C)NC(C)=C(C(=O)OCCC[n+]2ccncc2)[C@H]1c1cccc([N+](=O)[O-])c1` [Example 3, 3-pyraziniumpropyl (4S)-1,4-dihydro-2,6-dimethyl-5-methoxycarbonyl-4-(3-nitrophenyl)-pyridine-3-carboxylate iodide], for which the solubility at 0.05 h in “physchem” is ≥ 1000 µg/mL.

For `COC(=O)C1=C(C)NC(C)=C(C(=O)OCCC[n+]2ccsc2)[C@H]1c1cccc([N+](=O)[O-])c1` [Example 4, 3-thiazoliumpropyl (4S)-1,4-dihydro-2,6-dimethyl-5-methoxycarbonyl-4-(3-nitrophenyl)-pyridine-3-carboxylate iodide], the solubility at 0.05 h in the data set “physchem” is ≥ 1000 µg/mL. Still for that read-out and setting: with `COC(=O)C1=C(C)NC(C)=C(C(=O)OCCC[n+]2ccccn2)[C@H]1c1cccc([N+](=O)[O-])c1` [Example 5, 3-pyridaziniumpropyl (4S)-1,4-dihydro-2,6-dimethyl-5-methoxycarbonyl-4-(3-nitrophenyl)-pyridine-3-carboxylate iodide] the figure was ≥ 1000 µg/mL.

As to `COC(=O)C1=C(C)NC(C)=C(C(=O)OCCC[n+]2ccn(C)c2)[C@H]1c1cccc([N+](=O)[O-])c1` [Example 6, 3-(1-methylimidazolium)propyl (4S)-1,4-dihydro-2,6-dimethyl-5-methoxycarbonyl-4-(3-nitrophenyl)-pyridine-3-carboxylate iodide], the solubility at 0.05 h in data set [1] is ≥ 1000 µg/mL.

Consider `COC(=O)C1=C(C)NC(C)=C(C(=O)OCCC[n+]2cccc(C(=O)OC)c2)[C@H]1c1cccc([N+](=O)[O-])c1` [Example 7, 3-(3-methoxycarbonylpyridinium)propyl (4S)-1,4-dihydro-2,6-dimethyl-5-methoxycarbonyl-4-(3-nitrophenyl)-pyridine-3-carboxylate iodide], for which the solubility at 0.05 h in data set [1] was ≥ 1000 µg/mL. On the same count and under the same terms, to `COC(=O)C1=C(C)NC(C)=C(C(=O)OCCC[n+]2cccc(C#N)c2)[C@H]1c1cccc([N+](=O)[O-])c1` [Example 8, 3-(3-cyanopyridinium)propyl (4S)-1,4-dihydro-2,6-dimethyl-5-methoxycarbonyl-4-(3-nitrophenyl)-pyridine-3-carboxylate iodide] belongs ≥ 1000 µg/mL. Regarding `COC(=O)C1=C(C)NC(C)=C(C(=O)OCCC[n+]2ccc(N(C)C)cc2)[C@H]1c1cccc([N+](=O)[O-])c1` [Example 9, 3-(4-dimethylaminopyridinium)propyl (4S)-1,4-dihydro-2,6-dimethyl-5-methoxycarbonyl-4-(3-nitrophenyl)-pyridine-3-carboxylate iodide], in data set [1], the solubility at 0.05 h was ≥ 1000 µg/mL. Regarding `COC(=O)C1=C(C)NC(C)=C(C(=O)OCCC[n+]2cccc(C(N)=O)c2)[C@H]1c1cccc([N+](=O)[O-])c1` [Example 10, 3-(3-carbamoylpyridinium)propyl (4S)-1,4-dihydro-2,6-dimethyl-5-methoxycarbonyl-4-(3-nitrophenyl)-pyridine-3-carboxylate iodide], the solubility at 0.05 h in data set [1] is ≥ 1000 µg/mL. On the same count and under the same terms, to `COC(=O)C1=C(C)NC(C)=C(C(=O)OCc2cccc[n+]2C)[C@H]1c1cccc([N+](=O)[O-])c1` [Example 11, 3-(1-methyl-2-pyridinium)methyl (4S)-1,4-dihydro-2,6-dimethyl-5-methoxycarbonyl-4-(3-nitrophenyl)-pyridine-3-carboxylate iodide] belongs ≥ 1000 µg/mL; to `COC(=O)C1=C(C)NC(C)=C(C(=O)OCCCc2ccc[n+](C)c2)[C@H]1c1cccc([N+](=O)[O-])c1` [Example 12, 3-(1-methyl-3-pyridinium)propyl (4S)-1,4-dihydro-2,6-dimethyl-5-methoxycarbonyl-4-(3-nitrophenyl)-pyridine-3-carboxylate iodide], ≥ 1000 µg/mL.

Source of the values: US6133443A, “Optically active 1,4-dihydropyridine derivatives and process for the preparation thereof” (Mercian Corporation, priority 1996, dated 2000).
